Laboratory results from patent publication US11707471B2, “ENPP1 inhibitors and their use for the treatment of cancer” (The Board of Trustees of the Leland Stanford Junior …, priority 2017, dated 2023).

Test system: 4T1 tumor
Experiment: 4T1 tumor model: ENPP1 inhibition with IR, cGAMP and anti-CTLA-4
Assay type: in vivo, mouse
Details: 20 Gy IR then intratumoral 10 μg cGAMP on day 2, 4, 7

Nc1nc2c(ncn2[C@@H]2O[C@@H]3COP(=O)(O)O[C@H]4[C@@H](O)[C@H](n5cnc6c(N)ncnc65)O[C@@H]4COP(=O)(O)O[C@@H]2[C@@H]3O)c(=O)[nH]1 [cGAMP, cyclic guanosine monophosphate-adenosine monophosphate]
effect over IR treatment: had no effect over IR treatment
